Test results as given in BindingDB's records for patent US11021481 (Nimbus Saturn, 2021).

These compounds were tested against Mitogen-activated protein kinase kinase kinase kinase 1 (Homo sapiens, UniProt Q92918) (assay: Biochemical Enzyme Assay).
Experimental: HPK1 biochemical enzyme assay: HPK1 enzyme inhibition was measured using a microfluidic mobility shift assay. […] Test compounds were titrated in ten point curves (top final assay concentration 3 μM), and preincubated with enzyme/substrate mix for 30 min prior to initiation of the reaction by addition of ATP (1 mM final concentration) and substrate (1 μM final concentration; Carna Biosciences) diluted in assay buffer supplemented by MgCl2 (final assay concentration of 5 mM). Following 60 min incubation at RT, the reaction was terminated by addition of 60 µl/well termination buffer (Carna Biosciences) and signal determination using aCaliper EZ Reader (Perkin Elmer, UK).

Sequence of Mitogen-activated protein kinase kinase kinase kinase 1 (Q92918 whole entry): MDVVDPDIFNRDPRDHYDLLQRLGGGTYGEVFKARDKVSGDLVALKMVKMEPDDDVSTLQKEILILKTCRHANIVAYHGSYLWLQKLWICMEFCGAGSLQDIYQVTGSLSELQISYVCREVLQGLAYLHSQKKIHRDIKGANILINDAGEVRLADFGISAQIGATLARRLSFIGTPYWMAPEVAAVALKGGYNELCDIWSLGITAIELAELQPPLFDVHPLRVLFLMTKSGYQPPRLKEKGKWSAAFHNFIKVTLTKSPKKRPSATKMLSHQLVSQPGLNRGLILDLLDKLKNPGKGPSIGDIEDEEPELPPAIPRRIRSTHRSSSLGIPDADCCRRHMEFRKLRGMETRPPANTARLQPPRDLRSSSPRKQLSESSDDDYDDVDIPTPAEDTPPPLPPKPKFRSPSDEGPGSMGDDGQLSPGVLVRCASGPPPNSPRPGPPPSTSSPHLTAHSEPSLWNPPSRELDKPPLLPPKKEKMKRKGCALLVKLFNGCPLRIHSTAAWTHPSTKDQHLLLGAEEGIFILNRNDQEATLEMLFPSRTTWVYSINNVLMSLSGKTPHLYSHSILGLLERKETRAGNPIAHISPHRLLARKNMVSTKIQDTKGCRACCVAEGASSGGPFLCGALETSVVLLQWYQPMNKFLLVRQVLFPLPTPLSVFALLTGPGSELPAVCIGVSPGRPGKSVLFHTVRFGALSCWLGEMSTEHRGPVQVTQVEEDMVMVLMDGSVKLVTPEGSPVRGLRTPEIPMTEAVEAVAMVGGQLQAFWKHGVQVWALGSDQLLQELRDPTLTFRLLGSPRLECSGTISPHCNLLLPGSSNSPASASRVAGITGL

| Structure (SMILES) | IC50 |
| --- | --- |
| CN1CCN(c2nc(Nc3ccc(-c4cnc5cc(F)ccn45)c4c3C(=O)NC4)cnc2[C@H]2CCOC2)CC1 [US11021481, Compound I-801] | < 100 nM |
| Cc1ccn2c(-c3ncc(Nc4cccc(C5CCC6CNCC65)n4)c4c3CNC4=O)cnc2c1F (stereo not given) [US11021481, Compound I-481] | < 100 nM |
| CC(C)(O)[C@@H]1CN(c2ccc(Nc3ccc(-c4cnc5c(C(F)F)cccn45)c4c3C(=O)NC4)nc2)CCO1 [US11021481, Compound I-475] | < 100 nM |
| Cn1ccc2c1N=CNC2c1ccc(Nc2ccc(N3CCC(O)CC3)cn2)c2c1CNC2=O (stereo not given) [US11021481, Compound I-144] | < 100 nM |
| C[C@@H]1CN(c2c(CN(C)C)cc(Nc3ccc(-c4cnc5cc(F)ccn45)c4c3C(=O)NC4)nc2CN(C)C)CCO1 [US11021481, Compound I-541] | < 100 nM |
| CN1CCN(c2nc(Nc3ccc(-c4cnc5cc(F)ccn45)c4c3C(=O)NC4)cnc2[C@@H]2CCOC2)CC1 [US11021481, Compound I-802] | < 100 nM |
| COCC1(O)CCN(c2ccc(Nc3ccc(-c4ccnc5c4ccn5C)c4c3C(=O)NC4)nc2CN(C)C)CC1 [US11021481, Compound I-851] | < 100 nM |
| Cn1ccc2c(-c3ncc(Nc4ccc(C5CCOC5)c(CN5CCCC5)n4)c4c3CNC4=O)cccc21 (stereo not given) [US11021481, Compound I-552] | < 100 nM |
| CN1CC(O)(C2CCCN(c3ccc(Nc4ccc(C5=CNC6C=C(F)C=CN56)c5c4C(=O)NC5)nc3)C2)C1 (stereo not given) [US11021481, Compound I-599] | < 100 nM |
| Cc1ccn2c(-c3ccc(Nc4ccc(C5CCOC5)c(CN(C)C)n4)c4c3CNC4=O)cnc2c1 (stereo not given) [US11021481, Compound I-561] | < 100 nM |
| Cc1ccn2c(-c3ncc(Nc4cccc(C5CC[C@@H]6CNC[C@H]56)n4)c4c3CNC4=O)cnc2c1F (stereo not given in full) [US11021481, Compound I-480] | in the range around 550 nM |
| CN(C)Cc1nc(Nc2cnc(-c3cccc4c3ccn4C)c3c2C(=O)NC3)ccc1O[C@@H]1CCOC1 [US11021481, Compound I-805] | < 100 nM |
| CNC1CN(c2cccc(Nc3cnc(-c4ccnc5c4ccn5C)c4c3C(=O)NC4)c2)C1 [US11021481, Compound I-449] | < 100 nM |
| O=C1NCc2c(-c3cnc4ccccn34)ccc(Cc3ccn(C4CCOCC4)n3)c21 [US11021481, Compound I-382] | > 1000 nM |
| Cc1ccnn2c(-c3ncc(Nc4ccc(C5CCOC5)c(CN(C)C)n4)c4c3CNC4=O)cnc12 (stereo not given) [US11021481, Compound I-539] | < 100 nM |
